Laboratory results from patent US20060040919A1, “Bronchorelaxing compounds” (priority 2004, published 2006).

Tests used:
[1] = tested on: human bronchus preparation; experiment: Bronchorelaxation test: LTD4-induced contraction of human bronchus preparation; conditions: 10 μM capsazepine, 1 h exposure, then 10 nM LTD4; compared with control LTD4 contraction; exemplary test of FIG. 7
Procedure: Dissection and mounting of lung tissue preparations. Lung tissue was obtained from patients undergoing lobectomia or pulmectomia due to lung carcinoma. The tissue was placed in a dissection chamber continuously perfused with 10 ml min^−1 of a physiological saline solution (PSS) at room temperature. An airway was identified in the cut part of the lobe, and a bronchus of 10-20 mm length and 1-2 mm diameter was obtained. The bronchus was cut into rings of a width of about 2-3 mm. Each bronchial ring was cleaved to obtain an about rectangular oblong preparation, one end of which was tied to a small steel hook connected to a force transducer, while the other end of the preparation was attached to a fixed hook. This is followed by a period of adjustment, as described below. The preparation was mounted in an atmosphere containing […] and 6% of CO2.
Experimental chamber. The experimental chamber has a volume of 5 ml. It is perfused with PSS at a rate of 3 ml min^−1. Two preparations are mounted in the chamber, and measurements on them are performed in parallel. For mechanical tensioning each force transducer (AME 801, SensoNor A/S, Horten, Norway) is connected to a micrometer screw. The substances to be tested, the reference substance (capsazepine), and transmitter (LTD4) are injected upstream of the preparation(s).
Materials. […]

melting point [°C]	Compound	remaining contraction (test force) relative to that caused by the control force [1]
83 to 86	Oc1c(O)c(Cl)c2c(c1Cl)CCN(C(=S)NCCc1ccc(Cl)cc1)C2 [Res-4-95, 5,8-Dichloro-N-[2-(4-chlorophenyl)ethyl]-6,7-dihydroxy-3,4-dihydroisoquinoline-2(1H)-carbothioamide]	–
–	Oc1cc2c(cc1O)CN(C(=S)NCCc1ccc(Cl)cc1)CCC2 [capsazepine]	about 55%
